Reference: patent US20130267500A1, “5-HT2C RECEPTOR AGONISTS IN THE TREATMENT OF DISORDERS AMELIORATED BY REDUCTION OF NORE[…]” (Arena Pharmaceuticals, Inc., priority 2010, published 2013)

Tests used:
human 5-HT2C receptors = target: T1, human 5-HT2C receptors (Homo sapiens, UniProt P28335); settings: cited from earlier work
T1 sequence (P28335 33-458): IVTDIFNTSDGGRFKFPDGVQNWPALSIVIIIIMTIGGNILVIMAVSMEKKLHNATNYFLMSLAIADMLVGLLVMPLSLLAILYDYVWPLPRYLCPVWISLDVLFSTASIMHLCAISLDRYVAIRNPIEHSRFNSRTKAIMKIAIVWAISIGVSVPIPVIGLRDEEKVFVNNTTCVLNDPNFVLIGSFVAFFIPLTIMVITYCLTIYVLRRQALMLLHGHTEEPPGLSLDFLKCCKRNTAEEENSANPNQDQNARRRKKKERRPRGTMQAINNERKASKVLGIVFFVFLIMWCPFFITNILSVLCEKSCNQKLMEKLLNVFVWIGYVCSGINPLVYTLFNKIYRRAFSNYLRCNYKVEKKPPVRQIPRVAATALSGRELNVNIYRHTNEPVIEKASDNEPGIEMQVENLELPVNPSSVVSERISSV

5-HT2B receptors = 5-HT2B receptors (Homo sapiens, UniProt P41595); settings: cited from earlier work
5-HT2A receptors = 5-HT2A receptors (Homo sapiens, UniProt P28223); settings: cited from earlier work
norepinephrine = test: 56-day placebo-controlled study: 24 h urine norepinephrine; assay type: in vivo, human; settings: 10 mg BID
Protocol: (§1) A fifty-six-day, double-blind, randomized, placebo-controlled, parallel-group study was conducted to assess the effects of lorcaserin hydrochloride administration to overweight and obese male and female patients. The study was completed according to the guidelines of Good Clinical Practice and was conducted in full compliance with the World Medical Association Declaration of Helsinki and its most recent amendments.
(§2) Fifty-seven overweight or obese adult male and female subjects aged 18 to 65 years inclusive were randomized to one of two treatment groups: placebo or lorcaserin hydrochloride (10 mg) twice-a-day (BID) for 56 days. The majority of subjects were female (68.4%) and Caucasian (63.2%). […]
(§3) The analyses of all efficacy variables used the Modified Intent-to-Treat Population (MITT) population. Patient data were analyzed according to the treatment assigned at randomization, regardless of the treatment received during the course of the trial. […] Compliance was assessed by the number of remaining tablets. […]
(§4) Mean concentrations and mean change from baseline in 24 h urine epinephrine and norepinephrine at Day 7 and Day 56 were assessed. […] Epinephrine was below the limit of quantitation in 44 of 55 available patient samples at Day 7 and 33 of 52 available samples at Day 56. […]

epinephrine = test: 56-day placebo-controlled study: 24 h urine epinephrine; assay type: in vivo, human; settings: after 7 or 56 days of treatment; small number of evaluable samples
Protocol: as §1, §2, §3, §4

[1] = 56-day placebo-controlled study of lorcaserin hydrochloride: body weight; assay type: in vivo, human; settings: for Bodyweight, Mean: lorcaserin hydrochloride 10 mg BID oral
Protocol: as §1
(§5) Fifty-seven overweight or obese adult male and female subjects aged 18 to 65 years inclusive were randomized to one of two treatment groups: placebo or lorcaserin hydrochloride (10 mg) twice-a-day (BID) for 56 days. The majority of subjects were female (68.4%) and Caucasian (63.2%). […] Patients were required to participate in the Arena Healthy Lifestyle Program®, designed specifically for this study, which included a 600 kcal deficit diet and 30 minutes of moderate exercise per day.
(§6) Each subject underwent screening procedures within 28 days or sooner, prior to dosing on Day 1, over 3 screening visits (Days −28, −14, and −7). This was followed by an initial inpatient period of 4 days, a 3-day outpatient period, a second 4-day inpatient period, a second outpatient period over 45 days which included 7 visits, and a final 3-day inpatient period. Fifty-three subjects completed the study.
(§7) Lorcaserin formulation is composed of white tablets containing lorcaserin (active) and excipients (silicified microcrystalline cellulose NF, hydroxypropyl cellulose NF, croscarmellose sodium NF, magnesium stearate NF and Opadry® II white). The placebo is composed of white tablets containing excipients.
(§8) All enrolled patients received two oral doses per day (one dose in the morning prior to breakfast and one dose in the evening prior to dinner) of study medication (lorcaserin or placebo) for 56 days. Dosing was performed in a double-blind manner so that neither the patient nor the Investigator knew which treatment had been assigned. Patients were told to take the study medication each morning and evening approximately 60 minutes before breakfast and dinner and were encouraged to take the study medication with an adequate amount of water (8 oz or 240 mL). Patients were asked not to crush, break, chew, or dissolve the tablets.
Patients were required to fast for 10 hours prior to each study visit that requires a blood sample for clinical laboratory tests. Participants were weighed (in duplicate) at each study visit wearing a hospital gown. Efforts were made to schedule study visits prior to 10:00 a.m. to capture the fasted body weight and to reduce the variability in body weight normally observed throughout the day. Weights were measured in kilograms (kg).
The analyses of all efficacy variables used the Modified Intent-to-Treat Population (MITT) population. Patient data were analyzed according to the treatment assigned at randomization, regardless of the treatment received during the course of the trial. Inclusion was dependent on the presence of a baseline measurement, consumption of at least one study dose, and a post-randomization measurement. Patients were instructed to bring their unused study drug with them to each study visit. Compliance was assessed by the number of remaining tablets. Change from baseline or percent change from baseline is defined as the change from Day 1 (randomization) measurement. If the Day 1 measurement was not available, the last non-missing pre-randomization measurement was used as the baseline value, otherwise baseline was considered missing. […]

[2] = 56-day placebo-controlled study: safety (adverse events, ECG, BDI-II); assay type: in vivo, human
Protocol: as §1, §5, §6, §7, §8
A 12-lead ECG was performed at screening (baseline), and during the exit visit (Day 57). […] Individual subjects experienced abnormalities at all time points including baseline. […] None of the abnormalities were clinically significant.
Serial assessments of depression were performed during the study at Days −2, +6 and +55 (Beck Depression Inventory-II (BDI-II)).

[3] = cited from earlier work
[4] = lorcaserin group, 10 mg BID, 56 days
[5] = phase 3 program, up to two years

5-HT2A receptors, sequence (P28223 whole entry): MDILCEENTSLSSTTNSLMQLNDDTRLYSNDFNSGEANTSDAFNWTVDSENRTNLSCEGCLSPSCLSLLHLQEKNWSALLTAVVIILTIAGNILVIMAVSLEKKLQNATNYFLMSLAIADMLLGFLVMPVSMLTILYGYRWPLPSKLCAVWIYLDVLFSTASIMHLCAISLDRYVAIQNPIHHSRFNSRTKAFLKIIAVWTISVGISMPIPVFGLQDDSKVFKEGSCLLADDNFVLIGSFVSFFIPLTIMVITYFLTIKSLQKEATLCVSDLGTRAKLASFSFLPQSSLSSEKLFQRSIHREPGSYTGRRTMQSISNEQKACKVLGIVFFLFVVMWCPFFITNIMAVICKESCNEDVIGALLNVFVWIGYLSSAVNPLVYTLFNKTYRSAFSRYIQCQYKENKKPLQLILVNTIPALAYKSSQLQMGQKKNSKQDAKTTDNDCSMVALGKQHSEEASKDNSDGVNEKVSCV
5-HT2B receptors, sequence (P41595 whole entry): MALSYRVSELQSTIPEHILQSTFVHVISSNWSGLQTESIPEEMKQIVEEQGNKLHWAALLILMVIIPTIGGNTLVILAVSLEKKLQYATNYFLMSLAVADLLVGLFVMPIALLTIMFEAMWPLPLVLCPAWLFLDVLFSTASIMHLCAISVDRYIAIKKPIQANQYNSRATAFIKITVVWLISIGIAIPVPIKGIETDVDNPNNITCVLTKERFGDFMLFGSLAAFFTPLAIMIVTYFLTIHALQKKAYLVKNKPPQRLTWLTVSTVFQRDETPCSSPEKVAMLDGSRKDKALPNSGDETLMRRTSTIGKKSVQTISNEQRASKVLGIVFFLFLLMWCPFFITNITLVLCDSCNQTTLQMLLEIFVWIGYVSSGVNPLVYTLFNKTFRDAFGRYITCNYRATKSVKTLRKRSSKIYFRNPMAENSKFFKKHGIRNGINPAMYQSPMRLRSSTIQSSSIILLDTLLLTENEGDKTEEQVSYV

CN(C)[C@@H]1Cc2ccccc2[C@@H](c2ccccc2)C1 [(1R,3S)-(−)-trans-1-phenyl-3-dimethylamino-1,2,3,4-tetrahydronaphthalene]
activity at human 5-HT2C receptors (human 5-HT2C receptors): agonist
activity at 5-HT2B receptors (5-HT2B receptors): antagonist
activity at 5-HT2A receptors (5-HT2A receptors): antagonist

C[C@H]1CNCCc2ccc(Cl)cc21 [Lorcaserin, (R)-8-Chloro-1-methyl-2,3,4,5-tetrahydro-1H-3-benzazepine]
24 h norepinephrine excretion in urine (norepinephrine; after 7 days (p<0.0001)): significant decrease
24 h norepinephrine excretion in urine (norepinephrine; after 56 days (p<0.001)): significant decrease
24 h epinephrine excretion (epinephrine): no change
Bodyweight, Mean ([1]; Day 1 (baseline), overweight/obese patients): 96.59 kg
Bodyweight, Mean ([1]; Day 6): 96.67 kg
Bodyweight, Mean ([1]; Day 55): 93.84 kg
weight loss ([1]; at 6 days, 10 mg BID): No significant weight loss
weight loss as compared to placebo ([1]; at 55 days, 10 mg BID): Significantly greater weight loss
deaths or serious adverse events ([2]; 10 mg BID, 56 days): No deaths or serious adverse events occurred
early terminations due to AEs ([2]; 10 mg BID, 56 days): no early terminations due to AEs
incidence of depression related adverse events ([2]; 10 mg BID, 56 days): did not increase
tolerability ([2]; 10 mg BID, 56 days): generally well tolerated
Beck Depression Inventory-II (BDI-II), difference between lorcaserin and placebo groups ([2]; Days -2, +6 and +55): No meaningful differences
Headache, subjects with at least 1 event ([2]; lorcaserin group (29 randomized), 10 mg BID, 56 days): 11 subjects
Dizziness, subjects reporting [2, 4]: 3 subjects
Headache, rate of subjects with at least 1 event [2, 4]: 37.9%
12-lead ECG effects ([2]; screening vs exit visit (Day 57)): no apparent treatment-related effects on ECG
excess body weight lost (normal BMI of 25) ([3]; first phase 3 trial): about one-third
patients achieving at least 5% weight loss [3, 5]: About two-thirds
patients achieving at least 10% weight loss [3, 5]: over one-third
average weight lost, of their weight ([3]; phase 3 program): about 8%
depression or suicidal ideation ([3]; phase 3 program): no signal
heart rate and blood pressure ([3]; phase 3 program): went down
risk of cardiac valvulopathy ([3]; phase 3 program): did not increase the risk
average weight loss, top quartile of patients ([3]; second phase 3 trial): 35 pounds
average weight loss, top quartile of patients, of body weight ([3]; second phase 3 trial): 16%
